US6821980B1, “Substituted 5-benzyl-2,4-diaminopyrimidines” (Basilea Pharmaceutica AG, priority 1999, dated 2004)
Converted amounts (≈) assume the structure as drawn. Read-outs that look alike come from different tables or passages of the source.

What was measured:
[1] = system: Streptococcus pneumoniae 1/1; assay: MIC against Streptococcus pneumoniae 1/1; format: cell-based; conditions: Streptococcus pneumoniae 1/1, trimethoprim- and penicillin-resistant, serotype 6, clinical isolate; for MIC: read-out: MIC Sp1/1
[2] = system: Staphylococcus aureus 101; assay: MIC against Staphylococcus aureus 101; format: cell-based; conditions: Staphylococcus aureus 101, MRSA- and trimethoprim-resistant, clinical isolate; for MIC: read-out: MIC Sa101
[3] = biological target: T1, purified DHFR of strain Sp1/1 of Streptococcus pneumoniae (Streptococcus pneumoniae serotype 4, UniProt Q54801); format: biochemical; conditions: IC50 against purified DHFR of strain Sp1/1
T1 sequence (Q54801 1-168 I100L): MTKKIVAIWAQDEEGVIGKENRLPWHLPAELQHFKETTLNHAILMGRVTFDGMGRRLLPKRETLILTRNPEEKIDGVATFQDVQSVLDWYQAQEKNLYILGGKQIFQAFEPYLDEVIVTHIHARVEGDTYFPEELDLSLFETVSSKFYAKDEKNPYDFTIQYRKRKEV

[4] = biological target: purified DHFR of strain 157/4696 of Staphylococcus aureus (Staphylococcus aureus, UniProt P13955); assay: biochemical
purified DHFR of strain 157/4696 of Staphylococcus aureus, sequence (P13955 whole entry): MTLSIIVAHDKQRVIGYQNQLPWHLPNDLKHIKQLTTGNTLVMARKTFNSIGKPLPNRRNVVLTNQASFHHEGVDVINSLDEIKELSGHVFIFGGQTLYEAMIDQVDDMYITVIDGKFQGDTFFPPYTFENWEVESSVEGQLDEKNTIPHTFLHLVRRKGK

[5] = Table 2, IC50 against purified DHFR of strain 157/4696 (highly trimethoprim-resistant; clinical isolate), read-out: DHFR Sa1

| Compound | MIC ([1]; Table 2) [µg/mL] | MIC ([2]; Table 2) [µg/mL] | IC50 ([3]; Table 2) [nM] | IC50 [4] [nM] | MIC ([1]; Table 1) [µg/mL] | MIC ([2]; Table 1) [µg/mL] | IC50 ([3]; Table 1) [nM] | MIC Sp1/1 ([1]; Table 2) [µg/mL] | MIC Sa101 ([2]; Table 2) [µg/mL] | IC50 [4, 5] [nM] |
| --- | --- | --- | --- | --- | --- | --- | --- | --- | --- | --- |
| CCOc1cc(Cc2cnc(N)nc2N)cc(OS(=O)(=O)N(C)C(C)C)c1-c1cccc(N)c1 [Example 19-d, N-Isopropyl-N-methyl-sulphamic acid 3′-amino-4-(2,4-diamino-pyrimidin-5-ylmethyl)-6-ethoxy-biphenyl-2-yl ester] | 2 (≈ 4.11 µM) | 2 (≈ 4.11 µM) | 8.3 | 55 | – | – | – | – | – | – |
| CCOc1cc(Cc2cnc(N)nc2N)cc(OCC)c1-c1ccc(C=O)cc1 [Example 02-ag, 4′-(2,4-Diamino-pyrimidin-5-ylmetyl)-2′,6′-diethoxy-biphenyl-4-carbaldehyde] | 8 (≈ 20.4 µM) | 8 (≈ 20.4 µM) | 130 | 2200 | – | – | – | – | – | – |
| CCOc1cc(Cc2cnc(N)nc2N)cc(OCC(C)(C)CCC#N)c1-c1ccc(O)cc1 [Example 48-, 5-[4-(2,4-Diamino-pyrimidin-5-ylmethyl) 6-ethoy-4′-hydro-biPhenyl-2-xyloxy]-4,4-dimethyl-pentanenitrile] | 2 (≈ 4.33 µM) | 4 (≈ 8.67 µM) | 30 | 750 | – | – | – | – | – | – |
| CCOc1cc(Cc2cnc(N)nc2N)cc(OS(=O)(=O)CC(C)(C)C)c1-c1ccc(N)c(F)c1 [Example 37-a, 2,2-Dimethyl-propane-1-sulphonic acid 4′-amino-4-(2,4-diamino-pyrimidin-5-ylmethyl)-6-ethoxy-3′-fluoro-biphenyl-2-yl ester] | 0.25 (≈ 0.496 µM) | 4 (≈ 7.94 µM) | 4.5 | 550 | – | – | – | – | – | – |
| CCOc1cc(Cc2cnc(N)nc2N)cc(OS(=O)(=O)N(C)C)c1-c1ccc(SC)cc1 [Example 43-a, Dimethylsulphamic acid 4-(2,4-diamino-pyrimidin-5-ylmethyl)-6-ethoxy-4′-methylsulphanyl-biphenyl-2-yl ester] | 4 (≈ 8.17 µM) | 2 (≈ 4.08 µM) | 6.7 | 320 | – | – | – | – | – | – |
| CCOc1cc(Cc2cnc(N)nc2N)cc(OS(=O)(=O)C2CCC2)c1-c1ccc(N)c(C)c1 [Example 40c, Cyclobutane-sulphonic acid 4′-amino-4-(2,4-diamino-pyrimidin-5-ymethyl)-6-ethoxy-3′-methyl-biphenyl-2-yl ester] | – | – | – | 37 | 0.5 (≈ 1.03 µM) | 1 (≈ 2.07 µM) | 19 | – | – | – |
| CCOc1cc(Cc2cnc(N)nc2N)cc(OCC)c1-c1cccc(NC(C)=O)c1 [Example 05-c, N-[4′-(2,4-Diamino-pyrimidin-5-ylmethyl)-2′,6′-diethoxy-biphenyl-3-yl]-acetamide] | 4 (≈ 9.49 µM) | 8 (≈ 19 µM) | 30 | 2600 | – | – | – | – | – | – |
| CCOc1cc(Cc2cnc(N)nc2N)cc(OS(=O)(=O)C2CC2)c1-c1ccc(N)c(C)c1 [Example 34-d, Cyclopropanesulphonic acid 4′-amino-4-(2,4-diamino-pyrimidin-5-ylmethyl)-6-ethoxy-3′-methyl-biphenyl-2-yl ester] | 1 (≈ 2.13 µM) | 2 (≈ 4.26 µM) | 2.4 | 140 | – | – | – | – | – | – |
| CCOc1cc(Cc2cnc(N)nc2N)cc(OCC2CC2)c1-c1ccc(O)cc1 [Example 08-h, 2′-Cyclopropylmethoxy-4′-(2,4-diamino-pyrimidin-5-ylmethyl)-6′-ethoxy-biphenyl-4-ol] | 2 (≈ 4.92 µM) | 4 (≈ 9.84 µM) | 11 | 1200 | – | – | – | – | – | – |
| CCOc1cc(Cc2cnc(N)nc2N)cc(OCC)c1-c1cccc(S(C)(=O)=O)c1 [Example 02-af, 5-(2,6-Diethoxy-3′-methylsulphonyl-biphenyl-4-ylmethyl)-pyrimidine-2,4-diamine] | 8 (≈ 18.1 µM) | 8 (≈ 18.1 µM) | 85 | 1800 | – | – | – | – | – | – |
| CCOc1cc(Cc2cnc(N)nc2N)cc(OCC)c1-c1cc(N)cc(F)c1 [Example 04-t, 5-(5′-Amino-2,6-diethoxy-3′-fluoro-biphenyl-4-ylmethyl)-pyrimidine-2,4-diamine] | 2 (≈ 5.03 µM) | 8 (≈ 20.1 µM) | 31 | 1200 | – | – | – | – | – | – |
| CCOc1cc(Cc2cnc(N)nc2N)cc(OCC)c1-c1ccc(CN2CCOCC2)c(N)c1 [Example 04-j, 5-(3′-Amino-2,6-diethoxy-4′-morpholino-4-ylmethy-biphenyl)-pyrimidine-2,4-diamine] | – | – | 48 | – | – | – | – | 4 (≈ 8.36 µM) | 8 (≈ 16.7 µM) | 850 |
| CCCS(=O)(=O)Oc1cc(Cc2cnc(N)nc2N)cc(OCC)c1-c1ccc(CN2CCOCC2)c(N)c1 [Example 32-a, Pronane-1-sulophonic acid 3′-amino-4-(2,4-diamino-pyrimidin-5-ylmethyl)-6-ethoxy-4′-morpholinemethyl-4-ylmethyl-biphenyl-2-yl ester] | – | – | 4.6 | – | – | – | – | 1 (≈ 1.8 µM) | 4 (≈ 7.19 µM) | 120 |
| CCOc1cc(Cc2cnc(N)nc2N)cc(OS(=O)(=O)N(C)CC)c1-c1ccc(NC)cc1 [Example 26-b, N-Ethyl-N-methyl-sulphamic acid 4-(2,4-diamino-pvrimidin-5-ylmethyl)-6-ethoxy-4′-methylamino-biphenyl-2-yl ester] | 1 (≈ 2.06 µM) | 1 (≈ 2.06 µM) | 1.9 | 170 | – | – | – | – | – | – |
| CCOc1cc(Cc2cnc(N)nc2N)cc(OS(=O)(=O)CC(C)(C)OC)c1-c1ccc(CN2CCOCC2)c(N)c1 [Example 39-d, (2-Methoxy-2-methyl-propane)-1-sulphonic acid 3′-amino-4-(2,4-diamino-pyrimidin-5-ylmethyl)-6-ethoxy-4′-morpholinemethyl-biphenyl-2-yl ester] | – | – | 2.6 | – | – | – | – | 2 (≈ 3.33 µM) | 8 (≈ 13.3 µM) | 410 |
| CCOc1cc(Cc2cnc(N)nc2N)cc(OCC)c1-c1ccc(CN2CCCC2)cc1 [Example 04-y, 5-(2,6-Diethoxy-4′-pyrrolidin-1-ylmethyl-biphenyl-4-ylmethyl)-pyrimidine-2,4-diamine] | 8 (≈ 17.9 µM) | 8 (≈ 17.9 µM) | 92 | 890 | – | – | – | – | – | – |
| CCOc1cc(Cc2cnc(N)nc2N)cc(OCC)c1-c1ccc(OC)c(COC)c1 [Example 02-aa, 5-(2,6-Diethoxy-4′-methoxy-3′-methoxymethyl-biphenyl-4-ylmethyl)-pyrimidine-2,4-diamine] | 4 (≈ 9.12 µM) | 8 (≈ 18.2 µM) | 60 | 2500 | – | – | – | – | – | – |
| CCOc1cc(Cc2cnc(N)nc2N)cc(OCC2(CCC#N)CC2)c1-c1ccc(OC)cc1 [Example 09-c, 3-{1-[4-(2,4-Diamino-pyrimidin-5-ylmethyl)-6-ethoxy-4′-methoxy-biphenyl-2-yloxymethyl]-cyclopropyl}-propionitrile] | 1 (≈ 2.11 µM) | 4 (≈ 8.45 µM) | 16 | 900 | – | – | – | – | – | – |
| CCOc1cc(Cc2cnc(N)nc2N)cc(OCC)c1-c1ccc(CNCCF)cc1 [Example 04-ag, 5-{2,6-Diethoxy-4′-[(2-fluoro-ethylamino)-methyl]-biphenyl-4-ylmethyl}-pyrimidine-2,4-diamine] | 8 (≈ 18.2 µM) | 8 (≈ 18.2 µM) | 350 | 1800 | – | – | – | – | – | – |
| CCOc1cc(Cc2cnc(N)nc2N)cc(OS(=O)(=O)CC(C)C)c1-c1ccc(OC)c(N)c1 [Example 36-d, 2-Methyl-prooane-1-sulphonic acid 3′-amino-4-(2,4-diamino-pyrimidin-5-ylmethyl)-6-ethoxy-4′-methoxy-biphenyl-2-yl ester] | 0.5 (≈ 0.997 µM) | 2 (≈ 3.99 µM) | 0.68 | 66 | – | – | – | – | – | – |
